From patent publication US11059845B2, “Immune stimulating macrolides” (ISR IMMUNE SYSTEM REGULATION HOLDING AB (PUBL), priority 2017, dated 2021)

Assays:
Assay type in all cases: cell-based, human
[1] = system: Macrophages from healthy donors; assay: Cytokine/chemokine secretion from macrophages (cytometric bead assay)
Description: FIG. 10: Interferon-gamma secretion (as measured by cytometric bead assay) from macrophages stimulated with indicated compound for 48 h.
(§1) FIG. 11: Chemokine RANTES secretion (as measured by cytometric bead assay) from PBMC or macrophages stimulated with indicated compound for 48 h.
(§2) FIG. 12: IL12p70 secretion (as measured by cytometric bead assay) from PBMC or macrophages stimulated with indicated compound for 48 h.
(§3) FIG. 13: IL1b secretion (as measured by cytometric bead assay) from PBMC, macrophages or CD4 T cells stimulated with indicated compound for 48 h.
Study 9: Macrophages from healthy donors where exposed to compounds 1 or 2 for 48 hours. […] Compound 1 is therefore able to induce IFN-gamma secretion in macrophages from healthy donors.
(§4) Study 10: PBMCs and macrophages where exposed to compounds 1 or 2 for 2 days (FIG. 11).
(§5) Study 11: PBMCs and macrophages where exposed to compounds 1 and 2 for 2 days.
(§6) Study 12: PBMCs, macrophages and CD4+ T cells where exposed to compounds 1 and 2 for 2 days.

[2] = system: T cells in PBMC; assay: T cell proliferation with IL-2, Cell Trace Violet, flow cytometry; settings: 6 days, in the presence of IL-2
Description: FIG. 7. CD4 T cell proliferation after 6 days stimulation with compound 1, measured with proliferation dye Celltrace violet (Invitrogen) and flow cytometry. Untreated cells (UNT) or compound A were used as controls.
Study 6: PBMC were stimulated with compound 1 and cultured in RPMI media for 6 days in the presence of IL-2 (Miltenyi Biotechnologies) and Cell Trace Violet Dye (Invitrogen). Proliferation was measured with flow cytometry.

[3] = system: CMV specific CD8+ T cells; assay: CMV cultures: phenotype of CMV specific CD8+ T cells; settings: PBMCs from CMV infected donors, CMV antigen, 6 days
Description: Human peripheral blood mononuclear cells (PBMCs) were purified from healthy CMV positive donors with Ficoll-Paque density centrifugation. The PBMC were labeled with 5 μM celltrace violet (Invitrogen) in PBS for 15 minutes and then washed with complete cell culture medium. The labeled PBMC was cultured in the presence of a peptide library spanning the CMV pp65 protein (1 μg peptide/ml, JPT) in AIM-V media (Invitrogen) supplemented with L-glutamine, Sodium pyruvate (Sigma), 10% fetal bovine serum, 100 μg/mL penicillin and 100 μg/mL streptomycin (Hyclone) for 6-8 days in 37° C., 5% CO2. Cell proliferation was assessed with flow cytomtery using a BD FACS Canto II flow cytometer.
Study 7: CMV virus specific T cell proliferation was also affected by compound 1. […] CD127 is crucial for T cell homeostasis, differentiation and function, and reduced expression correlates with disease severity in HIV and other chronic viral diseases (Crawley et al. 2012).

[4] = system: Monocytes differentiated into macrophages; assay: CD80 expression on monocytes differentiated into macrophages; settings: 24 h
Description: Human peripheral blood mononuclear cells (PBMCs) were purified from healthy donors with Ficoll-Paque density centrifugation. Cells were cultured in complete RPMI-1640 medium (Invitrogen) supplemented with 25 mM HEPES, L-glutamine, Sodium pyruvate (Sigma), 10% fetal bovine serum, 100 μg/mL penicillin and 100 μg/mL streptomycin (Hyclone). Cells were stimulated for 24 h (study 1-4) or 48 h to 1 week (study 5) in 37° C., 5% CO2 with increasing concentrations of compound 1 and 2 in tissue culture plates. The cells were removed from the plate, washed in PBS and analysed for expression of cell specific surface markers and MHC class I with flow cytometry using monoclonal antibodies from BD Pharmingen and a FACS Canto II flow cytometer.

[5] = system: PBMCs; assay: Cytokine/chemokine secretion from PBMCs (cytometric bead assay); settings: 2 days
Description: as §1, §2, §3, §4, §5, §6

[6] = system: PBMCs; assay: Supernatant IL-10 sandwich ELISA; settings: 100 U/mL IL-2, 48 h and 7 days
Description: Supernatant IL-10 was measured with a standard sandwich ELISA (all antibodies from BD Biosciences) after 48 hours and 7 days incubation with 2.5 μM of compound 1 and 100 U/mL IL-2 (Miltenyi Biotechnologies) in complete RPMI media, 37° C., 5% CO2
Supernatant IL-10 was measured with a standard sandwich ELISA (all antibodies from BD Biosciences) after 48 hours and 7 days incubation with 2.5 uM of compound 1 and 100 U/mL IL-2 (Miltenyi Biotechnologies) in complete RPMI media, 37° C., 5% CO2.

## CC[C@H]1OC(=O)[C@H](C)[C@@H](O[C@H]2C[C@@H](N(C)C)[C@H](O)[C@@H](C)O2)[C@H](C)[C@@H](O)[C@](C)(O)C[C@@H](C)CN(C)[C@H](C)[C@@H](O)[C@]1(C)O [Compound 1]
[1]; 2 days
  IL-1beta secretion, macrophages: increased
  IL-12p70 secretion, macrophages: secreted IL-12p70
  expression of RANTES in macrophages: induced a high expression
[1]; 48 hours
  IFN-gamma secretion, macrophages: secreted IFN-gamma
[2]
  cytokine driven proliferation profile of T cells: altered cytokine driven proliferation profile
[3]
  expression of IL-7 receptor α (CD127) on activated CMV specific CD8+ T cells: increased expression
[4]
  CD80 on macrophages: upregulated
[5]
  IL-1beta secretion, PBMCs: slightly
  IL-12p70 secretion, PBMCs: secreted IL-12p70
  expression of RANTES in PBMCs: twofold upregulation
[6]
  production of IL-10: increased production
